# From US20100137448A1, “Methods for Treating Neuropsychiatric Disorders with NMDA Receptor Antagonists” (priority 2000, published 2010)
# Entries after “also recorded” stand apart in the source; their conditions may differ.
# What was measured:
# [1] = test system: precontracted aortic vessel; experiment: Relaxation of norepinephrine-precontracted rabbit aortic rings; type: tissue-based
# Description: New Zealand white female rabbits weighing 3-4 kilograms were anesthetized with sodium pentobarbital, 13 milligram per kilogram. Descending thoracic aorta were isolated, the vessels were cleaned of adherent tissue and the endothelium was removed by a gentle rubbing with a cotton-tipped applicator inserted into the lumen. The vessels were cut into 5 millimeter rings and mounted on stirrups connected to transducers by which changes in isometric tension were recorded (model TO3C, Grass Instruments, Quincy, Mass.). Vessel rings were suspended in 20 mL of oxygenated Krebs buffer at 37° C. and sustained contractions were induced with 1 μM norepinephrine. The vessels were then relaxed in a dose-dependent fashion ([…] through 10^−5 M compound 8). In some experiments vessels were pretreated with methylene blue or […] hemoglobin to block relaxations.
# Relaxations were attenuated by methylene blue (c) and hemoglobin (d) indicating an NO-related effect. (b) is a control with solvent.
# C57B1/6 mice = experiment: Murine cerebral ischemia model, intraluminal suture MCA occlusion; type: in vivo
# Description: The intraluminal suture technique was used to produce a 2 hr occlusion of the middle cerebral artery (MCA), following the same protocol for focal cerebral ischemial reperfusion as published previously (Chen, et al., Neuroscience (1998) 86: 1121). However, here C57B1/6 mice were used instead of rats. […] To produce a neuroprotective concentration of compound 7, the loading dose was 100 mg/kg i.p. and the maintenance dose was 40 mg/kg i.p. every 12 hr. In each case, drug or vehicle control was initially administered 2 hr after MCA occlusion. […] The animals were sacrificed and analyzed with TTC staining 48 hr after MCA occlusion (Chen, et al., Neuroscience (1998) 86: 1121).
# cerebrocortical neurons = experiment: NMDA-induced apoptosis of cerebrocortical neurons (in vitro protection); type: cell-based
# Description: Cerebrocortical cultures were exposed to 300 μM NMDA for 20 mm with or without various concentrations of compound 7. The next day cultures were analyzed by neuronal apoptosis as described in Example 19.
# Under these conditions (300 μM NMDA exposure for 20 mm, followed by washout), neuronal apoptosis was monitored 24 hours later by propidium iodide uptake and morphology of fixed, permeabilized neurons, among other techniques (Bonfoco et al., Proc Natl Acad Sci USA (1995) 92: 7162). NMDA induced about 20% apoptosis of neurons, and that 25-100 μM compound 7 afforded protection from this damage (P<0.001, FIG. 5).
# [2] = humans, 5 to 30 mg/day; cited from earlier work
# [3] = cited from earlier work
# [4] = loading dose 20 mg/kg i.p., maintenance 1 mg/kg/12 hours; cited from earlier work
# human albumin = human albumin (Homo sapiens, UniProt P02768); conditions: cited from earlier work
# Sequence of human albumin (P02768 25-609): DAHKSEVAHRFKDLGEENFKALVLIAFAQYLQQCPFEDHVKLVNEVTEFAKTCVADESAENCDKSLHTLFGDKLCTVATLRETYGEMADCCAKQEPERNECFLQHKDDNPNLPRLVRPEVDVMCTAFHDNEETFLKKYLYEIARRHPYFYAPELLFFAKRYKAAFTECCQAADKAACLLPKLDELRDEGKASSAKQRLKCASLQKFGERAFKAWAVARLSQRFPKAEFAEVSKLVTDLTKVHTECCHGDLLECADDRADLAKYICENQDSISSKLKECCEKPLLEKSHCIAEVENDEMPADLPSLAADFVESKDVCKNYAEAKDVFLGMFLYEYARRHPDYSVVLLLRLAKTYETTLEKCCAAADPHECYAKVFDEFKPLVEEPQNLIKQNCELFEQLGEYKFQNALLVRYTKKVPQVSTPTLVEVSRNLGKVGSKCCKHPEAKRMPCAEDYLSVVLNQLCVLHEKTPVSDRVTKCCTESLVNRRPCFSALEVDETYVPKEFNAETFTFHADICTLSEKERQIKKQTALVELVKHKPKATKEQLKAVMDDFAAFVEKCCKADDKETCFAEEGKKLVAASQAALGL
molecule,measurement,setting,value
"1-amino-3,5-dimethyl-7-hydroxyadamantane hydrochloride [Compound 9]","effect on blood vessel, compared with solvent (EtOH)","[1]; FIG. 8, hydrochloride",either no effect or slight blood vessel contractions
same,"effect on blood vessel, compared with solvent (EtOH)","[1]; FIG. 8, listed as compound 9, hydrochloride",either no effect or slight contractions of blood vessels
"CC(=O)NC12CC3(C)CC(C)(CC(O)(C3)C1)C2 [Compound 3, 1-acetamido-3,5-dimethyl-7-hydroxyadamantane]",melting point,,194 to 195 °C
"CC12CC3(C)CC(N)(C1)CC(O[N+](=O)[O-])(C2)C3.Cl [Compound 7, 1-amino-3,5-dimethyl-7-nitrateadamantane hydrochloride]",effect on blood vessel at 10 μM,"[1]; 10 μM concentration, FIG. 8",modest relaxation
same,cerebral damage after stroke,"C57B1/6 mice; 2 hr MCA occlusion, loading 100 mg/kg i.p., maintenance 40 mg/kg i.p. every 12 hr, first dose 2 hr after occlusion, TTC staining 48 hr, n=3, P<0.03 from control, P<0.05 from memantine",effective in decreasing cerebral damage after stroke
same,neuroprotection compared with memantine,"C57B1/6 mice; memantine 20 mg/kg i.p. loading, 1 mg/kg/12 hours maintenance, compound 7 100 mg/kg i.p. loading, 40 mg/kg i.p. every 12 hr",more neuroprotective than memantine
same,concentration affording protection from NMDA-induced apoptosis,"cerebrocortical neurons; 300 μM NMDA 20 mm, washout, apoptosis monitored 24 hours later, NMDA induced about 20% apoptosis, P<0.001",25 to 100 µM
same,NMDA-induced neuronal apoptosis,"cerebrocortical neurons; 300 μM NMDA for 20 mm, analysed next day, various concentrations, dose-dependent, P<0.001, n=3 cultures",largely prevented
"CC(=O)NC12CC3(C)CC(C)(C1)CC(O[N+](=O)[O-])(C3)C2 [Compound 8, 1-acetamido-3,5-dimetbyl-7-nitrateadamantane]",effect on precontracted aortic vessel,"[1]; endothelium-denuded rings, 1 μM norepinephrine",relaxes a precontracted aortic vessel in a dose-dependent fashion
same,relaxations after pretreatment with hemoglobin,[1]; vessels pretreated with hemoglobin,attenuated
same,relaxations after pretreatment with methylene blue,[1]; vessels pretreated with methylene blue,attenuated
"CC12CC3(C)CC(O)(C1)CC(N(Cc1ccccc1)Cc1ccccc1)(C2)C3 [Compound 10, 1,1-dibenzylamino-3,5-dimethyl-7-hydroxy-adamantane]","effect on blood vessel, compared with solvent (EtOH)",[1]; FIG. 8,either no effect or slight contractions of blood vessels; also recorded: either no effect or slight blood vessel contractions
"CC(=O)NC12CC3(C)CC(C)(CC(CO)(C3)C1)C2 [Compound 17, 1-Acetamido-3,5-dimethyl-7-hydroxymethyladamantane]",melting point,,152 to 153 °C
"CC12CC3CC(C)(C1)CC(N)(C3)C2 [memantine, 1-amino-3,5-dimethyladamantane]",mean CSF/serum ratio,[2],0.52
same,"average half-life, first therapeutically relevant phase","[3]; biphasic elimination, first phase",4 to 9 h
same,"average half-life, second phase","[3]; biphasic elimination, second phase",40 to 65 h
same,elimination by the renal route,[3]; in vivo,75%-90%
same,fecal excretion,[3]; in vivo,10%-25%
same,parenchymal levels in the brain,[4],1 to 10 µM
same,bound to human albumin,human albumin,< 10%
